According to patent publication US20120003186A1, “METHOD FOR DEDIFFERENTIATING ADIPOSE TISSUE STROMAL CELLS” (SNU R&DB FOUNDATION, priority 2010, published 2012):

Legend:
Type in all cases: cell-based, human
[1] = tested on: dedifferentiated ATSC; assay: Real time PCR of stemness and proliferation genes with inhibitor treatment; conditions: FIG. 9b; for expression of Oct-4 / expression of REX1, SOX2, CDk1 and CDk2: dedifferentiated ATSC treated with inhibitor
Procedure: The expression of Rex1, CDk1 and Runx3 genes were observed by real time PCR in the same manner of the Examples 2 and 3 in cells of control group not treated with AG490 and cells of experimental group not treated with AG490 or treated with 20 μM or 30 μM. As for a quantitative control group, the expression of GAPDH (glyceraldehyde-3-phosphate dehydrogenase) was also observed.
Expressions of REX1, Oct-4, SOX2, CDk1 and CDk2 were observed by real time PCR in the same manner of Examples 2 and 3 in each of the following cases. ATSC were treated with hypoxia/DPH-derivative for 6 hours and then divided into cases including: i) sample treated with nothing; ii) sample treated with SB203580 only; iii) sample treated with PD98059 only; and iv) sample treated with SB203580 and PD98059. As for a quantitative control group, the expression of GAPDH was also confirmed. The result is illustrated in FIG. 9b.

[2] = tested on: dedifferentiated ATSC; assay: Colony formation with inhibitor treatment; conditions: dedifferentiated ATSC vs non-treated experimental group; similar to control group; FIG. 10
Procedure: The inventors conducted following experiment to confirm the actual growth of ATSC treated with hypoxia/DHP-derivative by the activity of Rex-1 and growth-related signal protein which was confirmed at Example 7-1. To be specific, cells of control group and cells of experimental group treated with HPD98059, SB203580 or AG490, or not treated were prepared, and measured for colony formation. The result is illustrated in FIG. 10.

[3] = tested on: dedifferentiated ATSC; assay: Western blotting of growth-related signal proteins with inhibitor treatment; conditions: FIG. 9a
Description: The inventors conducted following experiment to confirm the expression pattern of growth-related signal protein and Rex-1 in ATSC treated with hypoxia/DHP-derivative. To be specific, the expression of P-Jak2 (Phosphorylated-Janus kinase 2) and P-Stat3 (Phosphorylated-signal transducer and activator of transcription3) was observed by Western blotting using anti-P-Jak2 antibody and anti-P-Stat3 antibody in the same manner explained above in Examples 2 and 3 in cells of control group not treated with AG490 (Jak2 inhibitor, Sigma) and in cells of experimental group not treated with AG490 or treated with 20 μM or 30 μM. The expression of p-STAT3 and STAT3 was observed by Western blotting using anti-p-STAT3 antibody and anti-Stat3 antibody in the same manner of the Examples 2 and 3 in a control group not treated with AG490 and experimental group treated with hypoxia/DHP-derivative for 6 hours and then treated or not treated with AG490. The expression of p-MEK (Phosphorylated-Mitogen-activated Protein/ERK Kinase), MEK, p-ERK (Phosphorylated-Extracellular signal-regulated kinases), ERK, C-myc, p-STAT3 and STAT3 proteins was observed by Western blotting in the same manner of the Examples 2 and 3 in control group not treated with PD98059 (MEX inhibitor, Sigma) and experimental group treated with hypoxia/DHP-derivative for 6 hours and then treated or not treated with PD98059. The expression of p-P38, P38, P53 and P21 protein was observed by Western blotting in the same manner of Examples 2 and 3 in control group not treated with SB203580 (P38MAPK inhibitor, Sigma) and experimental group treated with hypoxia/DHP-derivative for 6 hours and then treated or not treated with SB203580. The antibodies to each protein were purchased from Santa Cruz. The result is illustrated in FIG. 9a.

[4] = tested on: dedifferentiated ATSC; assay: Cell migration with signal transmission inhibitors; conditions: dedifferentiated ATSC treated with inhibitor; FIG. 15
Procedure: In the developmental procedures, cell migration is considered to be critical for normal development. Accordingly, the inventors conducted experiment as explained below to confirm the in vitro migration activity of dedifferentiated ATSC. First, experimental group was cultured in a culture medium containing control cell group and DHP-derivative under hypoxia condition for 30 minutes or 6 hours and then cultured in low serum growth medium. The cultured cells were moved onto 6-transwell plate (8 μm pore size; Costar, U.S.A) coated with laminin (Chemicon, U.S.A). The respective cells were divided on an upper layer chamber, and cultured under 37° C., 5% carbon dioxide condition for 48 hours, during which the cells were left to migrate from the upper layer chamber to the lower layer chamber. The remaining, non-migrated cells were removed from the surface of the upper layer chamber and the migrated cells in the lower layer chamber were stained with Harris hematoxylin (Sigma Aldrich, U.S.A). Cells were counted from 20-selected areas for the respective cells.
The inventors conducted experiment to confirm the signal pathway that influences the in vitro migration of ATSC which were treated with hypoxia/DHP-derivative.

[5] = vs sample not treated with inhibitor

| SMILES | expression of Rex′1, CDK1, CDK2, Nanog and Runx3 ([1]; dedifferentiated ATSC, higher concentration of AG490) | cell proliferation (colony formation) [2] | expression of P-Jak2 and P-Stat3 ([3]; higher concentration of AG490 (20 μM or 30 μM)) | expression of Oct-4 [1] | expression of REX1, SOX2, CDk1 and CDk2 [1] | expression of C-myc [3, 5] | phosphorylation of MEK [3, 5] | cell migration [4] | expression of P53 and P21 [3, 5] | phosphorylation of P38 [3, 5] |
| --- | --- | --- | --- | --- | --- | --- | --- | --- | --- | --- |
| N#C/C(=C/c1ccc(O)c(O)c1)C(=O)NCc1ccccc1 [AG490] | decreased expression | decreased cell proliferation | decreased expression | – | – | – | – | – | – | – |
| COc1cccc(-c2cc(=O)c3ccccc3o2)c1N [PD98059] | – | decreased cell proliferation | – | not changed | decreased | decreased expression | increased phosphorylation | noticeably decreased | – | – |
| C[S+]([O-])c1ccc(-c2nc(-c3ccncc3)c(-c3ccc(F)cc3)[nH]2)cc1 (stereo not drawn) [SB203580] | – | decreased cell proliferation | – | not changed | decreased | – | – | noticeably decreased | increased expression | decreased phosphorylation |
